# According to patent US20250059207A1, “6,6-FUSED HETEROCYCLIC COMPOUNDS AS METTL3 INHIBITORS” (858 Therapeutics, Inc., priority 2021, published 2025):
# Tested on: MOLM-13 cells
# Assay: Viability assay in MOLM-13 cells (CellTiter-Glo 2.0)
# Format: cell-based, human
# Details: Homo sapiens, MOLM-13, 72 h, read-out: MOLM-13 IC50 (cell viability)
# Procedure: Effects of test compounds on the proliferation and viability of human AML cells was evaluated using the MOLM-13 cell line (AddexBio Technologies cat. no. C0003003). […] Test compounds or controls (Bortezomib or DMSO) diluted in 2% DMSO/media were added to each well for final concentrations of 0.2% DMSO and 0.1-1 μM Bortezomib. The cells were incubated for 72 hours at 37° C. and 5% CO2. At the end of the 72 hour incubation, plates were removed from the incubator, cooled to room temperature and equal volume of CellTiter-Glo 2.0 (Promega) added to each well. After mixing and incubating the plate at room temperature for 10 minutes the luminescence was read using a plate reader. […] Concentration-response-curves and IC50 values were generated using Collaborative Drug Discovery software.
row,SMILES,IC50 [µM]
1,"Cc1ccc2nc(Cn3ccc4c(N5CCC5)cncc4c3=O)cn2c1 [Compound 9, 5-(azetidin-1-yl)-2-((6-methylimidazo[1,2-a]pyridin-2-yl)methyl)-2,7-naphthyridin-1(2H)-one]",> 10
2,"O=c1c2cnccc2ccn1Cc1cn2cc(CNCc3ccccc3)ccc2n1 [Compound 69, 2-((6-((benzylamino)methyl)imidazo[1,2-a]pyridin-2-yl)methyl)-2,7-naphthyridin-1(2H)-one]",> 10
3,"O=c1c2cncc(-c3ccccc3)c2ccn1Cc1cn2cc(CNC3(c4ccccc4)CC3)ccc2n1 [Compound 78, 5-phenyl-2-((6-(((1-phenylcyclopropyl)amino)methyl)imidazo[1,2-a]pyridin-2-yl)methyl)-2,7-naphthyridin-1(2H)-one]",1 to 10
4,"O=c1c2cncc(-c3ccccc3)c2ccn1Cc1cn2cc(CNCc3ccc(Cl)cc3)ccc2n1 [Compound 84, 2-((6-(((4-chlorobenzyl)amino)methyl)imidazo[1,2-a]pyridin-2-yl)methyl)-5-phenyl-2,7-naphthyridin-1(2H)-one]",1 to 10

# Same assay, conditions: MOLM-13 human AML cells, 72 hours, CellTiter-Glo 2.0; read-out: MOLM-13 IC50 (cell viability)
row,IC50 [µM],SMILES
1,> 10,"CCOc1cncc2c(=O)n(Cc3cn4cc(C)ccc4n3)ccc12 [Compound 3, 5-ethoxy-2-((6-methylimidazo[1,2-a]pyridin-2-yl)methyl)-2,7-naphthyridin-1(2H)-one]"
2,> 10,"Cc1ccc2nc(Cn3ccc4c(N5CC(c6ccccc6)C5)cncc4c3=O)cn2c1 [Compound 7, 2-((6-methylimidazo[1,2-a]pyridin-2-yl)methyl)-5-(3-phenylazetidin-1-yl) 2,7-naphthyridin-1(2H)-one]"
3,> 10,"Cc1ccc2nc(Cn3ccc4c(N5CCCCC5)cncc4c3=O)cn2c1 [Compound 10, 2-((6-methylimidazo[1,2-a]pyridin-2-yl)methyl)-5-(piperidin-1-yl)-2,7-naphthyridin-1(2H)-one]"
4,> 10,"Cc1ccc2nc(Cn3ccc4c(C5CC5)cncc4c3=O)cn2c1 [Compound 11, 5-cyclopropyl-2-((6-methylimidazo[1,2-a]pyridin-2-yl)methyl)-2,7-naphthyridin-1(2H)-one]"
5,> 10,"Cc1ccc2nc(Cn3ccc4c(-c5cc[nH]n5)cncc4c3=O)cn2c1 [Compound 15, 2-((6-methylimidazo[1,2-a]pyridin-2-yl)methyl)-5-(1H-pyrazol-3-yl)-2,7-naphthyridin-1(2H)-one]"
6,> 10,"Cc1ccc2nc(Cn3ccc4c(-c5cccnc5)cncc4c3=O)cn2c1 [Compound 17, 2-((6-methylimidazo[1,2-a]pyridin-2-yl)methyl)-5-(pyridin-3-yl)-2,7-naphthyridin-1(2H)-one]"
7,> 10,"CNC(=O)c1ccc(-c2cncc3c(=O)n(Cc4cn5cc(C)ccc5n4)ccc23)cc1 [Compound 26, N-methyl-4-(7-((6-methylimidazo[1,2-a]pyridin-2-yl)methyl)-8-oxo-7,8-dihydro-2,7-naphthyridin-4-yl)benzamide]"
8,> 10,"Cc1ccc2nc(Cn3ccc4c(-c5ccccc5C#N)cncc4c3=O)cn2c1 [Compound 28, 2-(7-((6-methylimidazo[1,2-a]pyridin-2-yl)methyl)-8-oxo-7,8-dihydro-2,7-naphthyridin-4-yl)benzonitrile]"
9,> 10,"Cc1ccc2nc(Cn3ccc4c(-c5c(F)cccc5F)cncc4c3=O)cn2c1 [Compound 29, 5-(2,6-difluorophenyl)-2-((6-methylimidazo[1,2-a]pyridin-2-yl)methyl)-2,7-naphthyridin-1(2H)-one]"
10,> 10,"Cc1ccc2nc(Cn3ccc4c(-c5c(C)cccc5F)cncc4c3=O)cn2c1 [Compound 30, 5-(2-fluoro-6-methylphenyl)-2-((6-methylimidazo[1,2-a]pyridin-2-yl)methyl)-2,7-naphthyridin-1(2H)-one]"
11,> 10,"CC(=O)Nc1ccc(-c2cncc3c(=O)n(Cc4cn5cc(C)ccc5n4)ccc23)cn1 [Compound 38, N-(5-(7-((6-methylimidazo[1,2-a]pyridin-2-yl)methyl)-8-oxo-7,8-dihydro-2,7-naphthyridin-4-yl)pyridin-2-yl)acetamide]"
12,> 10,"Cc1ccc2nc(Cn3ccc4c(C#CC5CC5)cncc4c3=O)cn2c1 [Compound 46, 5-(cyclopropylethynyl)-2-((6-methylimidazo[1,2-a]pyridin-2-yl)methyl)-2,7-naphthyridin-1(2H)-one]"
13,1 to 10,"Cc1ccc2nc(Cn3cc(C)c4ccncc4c3=O)cn2c1 [Compound 49, 4-methyl-2-((6-methylimidazo[1,2-a]pyridin-2-yl)methyl)-2,7-naphthyridin-1(2H)-one]"
14,> 10,"O=c1c2cnccc2ccn1Cc1cn2cc(CNCC3CCCCC3)ccc2n1 [Compound 71, 2-((6-(((cyclohexylmethyl)amino)methyl)imidazo[1,2-a]pyridin-2-yl)methyl)-2,7-naphthyridin-1(2H)-one]"
15,1 to 10,"O=c1c2cncc(-c3ccccc3)c2ccn1Cc1cn2cc(CNCc3ccccc3)ccc2n1 [Compound 72, 2-((6-((benzylamino)methyl)imidazo[1,2-a]pyridin-2-yl)methyl)-5-phenyl-2,7-naphthyridin-1(2H)-one]"
16,1 to 10,"CC(C)(C)CNCc1ccc2nc(Cn3ccc4c(-c5ccccc5)cncc4c3=O)cn2c1 [Compound 73, 2-((6-((neopentylamino)methyl)imidazo[1,2-a]pyridin-2-yl)methyl)-5-phenyl-2,7-naphthyridin-1(2H)-one]"

row,IC50 [µM],SMILES
1,> 10,"O=c1c2cncc(-c3ccccc3)c2ccn1Cc1cn2cc(CNCC3(O)CCC3)ccc2n1 [Compound 74, 2-((6-((((1-hydroxycyclobutyl)methyl)amino)methyl)imidazo[1,2-a]pyridin-2-yl)methyl)-5-phenyl-2,7-naphthyridin-1(2H)-one]"
2,> 10,"O=c1c2cncc(-c3ccccc3)c2ccn1Cc1cn2cc(CNCC3(F)CCC3)ccc2n1 [Compound 75, 2-((6-((((1-fluorocyclobutyl)methyl)amino)methyl)imidazo[1,2-a]pyridin-2-yl)methyl)-5-phenyl-2,7-naphthyridin-1(2H)-one]"
3,1 to 10,"O=c1c2cncc(-c3ccccc3)c2ccn1Cc1cn2cc(CNCC3CCCC3)ccc2n1 [Compound 76, 2-((6-(((cyclopentylmethyl)amino)methyl)imidazo[1,2-a]pyridin-2-yl)methyl)-5-phenyl-2,7-naphthyridin-1(2H)-one]"
4,1 to 10,"O=c1c2cncc(-c3ccccc3)c2ccn1Cc1cn2cc(CNCC3CCCCC3)ccc2n1 [Compound 77, 2-((6-(((cyclohexylmethyl)amino)methyl)imidazo[1,2-a]pyridin-2-yl)methyl)-5-phenyl-2,7-naphthyridin-1(2H)-one]"
5,1 to 10,"O=c1c2cncc(-c3ccccc3)c2ccn1Cc1cn2cc(CNCC3CC(F)C3)ccc2n1 (centres unmarked) [Compound 79, 2-((6-((((3-fluorocyclobutyl)methyl)amino)methyl)imidazo[1,2-a]pyridin-2-yl)methyl)-5-phenyl-2,7-naphthyridin-1(2H)-one]"
6,1 to 10,"O=c1c2cncc(-c3ccccc3)c2ccn1Cc1cn2cc(CNC3(c4ccccc4)CCC3)ccc2n1 [Compound 80, 5-phenyl-2-((6-(((1-phenylcyclobutyl)amino)methyl)imidazo[1,2-a]pyridin-2-yl)methyl)-2,7-naphthyridin-1(2H)-one]"
7,1 to 10,"CC(C)(NCc1ccc2nc(Cn3ccc4c(-c5ccccc5)cncc4c3=O)cn2c1)c1ccccc1 [Compound 81, 5-phenyl-2-((6-(((2-phenylpropan-2-yl)amino)methyl)imidazo[1,2-a]pyridin-2-yl)methyl)-2,7-naphthyridin-1(2H)-one]"
8,1 to 10,"O=c1c2cncc(-c3ccccc3)c2ccn1Cc1cn2cc(CNC(CO)c3ccccc3)ccc2n1 (centres unmarked) [Compound 82, 2-((6-(((2-hydroxy-1-phenylethyl)amino)methyl)imidazo[1,2-a]pyridin-2-yl)methyl)-5-phenyl-2,7-naphthyridin-1(2H)-one]"
9,1 to 10,"CC1CCC(CNCc2ccc3nc(Cn4ccc5c(-c6ccccc6)cncc5c4=O)cn3c2)CC1 (centres unmarked) [Compound 85, 2-((6-((((4-methylcyclohexyl)methyl)amino)methyl)imidazo[1,2-a]pyridin-2-yl)methyl)-5-phenyl-2,7-naphthyridin-1(2H)-one]"
10,1 to 10,"Cc1ccc(CNCc2ccc3nc(Cn4ccc5c(-c6ccccc6)cncc5c4=O)cn3c2)cc1 [Compound 86, 2-((6-(((4-methylbenzyl)amino)methyl)imidazo[1,2-a]pyridin-2-yl)methyl)-5-phenyl-2,7-naphthyridin-1(2H)-one]"
11,1 to 10,"CC(=O)Nc1ccc(-c2cncc3c(=O)n(Cc4cn5cc(CNCC6CC(F)C6)ccc5n4)ccc23)cn1 (centres unmarked) [Compound 87, N-(5-(7-((6-((((3-fluorocyclobutyl)methyl)amino)methyl)imidazo[1,2-a]pyridin-2-yl)methyl)-8-oxo-7,8-dihydro-2,7-naphthyridin-4-yl)pyridin-2-yl)acetamide]"
12,1 to 10,"O=c1c2cncc(C3CC3)c2ccn1Cc1cn2cc(CNCC3CCC3)ccc2n1 [Compound 88, 2-((6-(((cyclobutylmethyl)amino)methyl)imidazo[1,2-a]pyridin-2-yl)methyl)-5-cyclopropyl-2,7-naphthyridin-1(2 h)-one]"
13,1 to 10,"O=c1c2cncc(N3CCC3)c2ccn1Cc1cn2cc(CNCC3CC(F)C3)ccc2n1 (centres unmarked) [Compound 89, 5-(azetidin-1-yl)-2-((6-((((3-fluorocyclobutyl)methyl)-amino)methyl)imidazo[1,2-a]pyridin-2-yl)methyl)-2,7-naphthyridin-1(2H)-one]"
14,1 to 10,"CCNc1ccc2ccc(-c3ccc(Cn4ccc5c(-c6ccccc6)cncc5c4=O)cc3)cc2n1 [Compound 93, 2-(4-(2-(ethylamino)quinolin-7-yl)benzyl)-5-phenyl-2,7-naphthyridin-1(2H)-one]"
15,1 to 10,"CNc1ccc2ccc(-c3ccc(Cn4ccc5c(-c6ccccc6)cncc5c4=O)cc3)cc2n1 [Compound 94, 2-(4-(2-(methylamino)quinolin-7-yl)benzyl)-5-phenyl-2,7-naphthyridin-1(2H)-one]"
